Data on 7 compounds can be found in patent US6673807B1, “Immunosuppressive imidazole derivatives and their combination preparations with tacrolimus or cyclosporins” (Fujisawa Pharmaceutical Co., Ltd., priority 1998, dated 2004).

The test system of test [1] is production of nitric oxide in RAW264.7 cells. The experiment in a line: Assay for inhibitory activity on the production of nitric oxide (Griess, LPS + INFγ activated cells). Particulars: Mus musculus; test compound 10^-5 M; RAW264.7 cells activated with LPS 1 μg/ml and INFγ 3 u/ml for 18-24 hours. Format: cell-based, murine. How it is done: Test: Assay for Inhibitory Activity on the Production of Nitric Oxide
The murine macrophage cell line RAW264.7 (American Type Culture Collection, No. TIB71) was used in this study. RAW264.7 cells were grown on F75 plastic culture flasks at 37° C., 5% in Dulbecco's modified Eagle's medium (DMEM) supplemented with L-glutamine, penicillin, streptomycin and 10% heat-inactivated fetal bovine serum. They were removed from culture flasks by rubber cell scraper and were centrifuged and resuspended in DMEM without phenol red. They were plated in 96-well microtiter plates (10^5 cells per well) and allowed to adhere over 2 hours. The test samples were added and the cells were preincubated for 1 hour. Thereafter the cells were activated with both of lipopolysaccharide (LPS) (1 μg/ml) and interferon γ (INFγ) (3 u/ml) for 18-24 hours. An equal volume of Griess reagent (1% sulfanilamide/0.1% N-naphthylethylenediamine dihydrochloride/2.5% H3PO4) was added and the cells were incubated at room temperature for 10 minutes. The absorbance was read at 570 nm using microplate reader and NO2 was measured using NaNO2 as a standard.
In general terms: Nitrite, measured by Griess reagent, commonly stands in for NO production.

For the next test, the system named is rat cardiac allograft. The experiment in a line: Rat cardiac allograft survival (Lewis donor to ACI recipient, heterotopic intra-abdominal cardiac transplantation). In kind it is in vivo. Particulars: for MST (Median Survival Time): daily gastric intubation for 14 days. How it is done:
Protective effect of the compound (f) or (g) combined with FK506 on rat cardiac allograft:
(§1) Experiments were performed on male Lewis and ACI rats weighing 175-200 g. Rats were anesthetized with sodium pentobarbital (50 mg/kg, i.p), and performed allogeneic (Lewis donor to ACI recipient) heterotopic intra-abdominal cardiac transplantation. Experimental groups were divided into single-drug group and combined-drug groups. Single-drug dose of FK506 was 0.32 mg/kg. Combined-dose groups were FK506(0.32 mg/kg)+the compound (f) (3.2 mg/kg), FK506(0.32 mg/kg)+the compound (f) (10 mg/kg), and FK506(0.32 mg/kg)+the compound (g) (10 mg/kg). The grafted hearts were monitored by daily palpation and complete rejection was defined as the cessation of palpable contractile activity. Drugs were suspended in a solution of 0.5% methylcellulose, and administered by daily gastric intubation in a volume of 5 ml/kg of body weight for 14 days. The blood samples were collected on 5 days after transplantation for analysis of nitrite/nitrate (NOx). The concentration of NOx in rat plasma was measured by using a spectrophotometric assay based upon the Griess reaction.

In another test the test system is NOx in rat plasma. The experiment in a line: Concentration of nitrite/nitrate (NOx) in rat plasma after cardiac transplantation (Griess reaction). In kind it is in vivo. The procedure: as §1

Consider `Cn1c(-c2ccc([N+](=O)[O-])cc2)cnc1[C@H](CC(=O)Nc1ccc2c(c1)OCO2)NC(=O)c1cc2ccccc2[nH]1` [(e)], for which, in test [1], the inhibition (as a rule, the drop in the measured response relative to a control, in per cent) at 10 µM amounted to 100%.

`CCOc1ccc(-c2c(Cc3ccccc3)nc([C@H](Cc3ccccn3)NC(=O)c3cc4ccccc4[nH]3)n2C)cc1` [(a)]: the inhibition at 10 µM in test [1] came out at 100%.

`COc1ccc(NC(=O)C[C@H](NC(=O)c2cc3ccccc3[nH]2)c2ncc(-c3ccc([N+](=O)[O-])cc3)n2C)cc1` [(d)]: in test [1], the inhibition at 10 µM turned out to be 100%.

With `Cn1c(-c2ccc([N+](=O)[O-])cc2)cnc1[C@H](Cc1ccccn1)NC(=O)c1cc2cc(Cl)ccc2[nH]1` [(b)], the inhibition at 10 µM in test [1] was found to be 100%.

For `Cn1c(-c2ccc(N3CCOCC3)cc2)cnc1[C@H](Cc1ccccn1)NC(=O)c1cc2cc(Cl)ccc2o1` [(g)], in test [1], the inhibition at 10 µM was found to be 100%. Moreover, the “MST (Median Survival Time)” value with rat cardiac allograft (Table 2, compound (g) 10 mg/kg + FK506 0.32 mg/kg) is more than 30 days. For the same compound, in the test on rat cardiac allograft (combination with FK506, rat cardiac allograft), the graft survival entry was “dramatically prolonged”. For the same compound, the “elevated NOx production during cardiac allograft rejection” value in the test on NOx in rat plasma (rat cardiac allograft, in a dose-dependent manner) is recorded as “inhibited”.

As to `C=CC[C@@H]1/C=C(\C)C[C@H](C)C[C@H](OC)[C@H]2O[C@@](O)(C(=O)C(=O)N3CCCC[C@H]3C(=O)O[C@H](/C(C)=C/[C@@H]3CC[C@@H](O)[C@H](OC)C3)[C@H](C)[C@@H](O)CC1=O)[C@H](C)C[C@@H]2OC` [FK506, 17-allyl-1,14-dihydroxy-12-[2-(4-hydroxy-3-methoxycyclohexyl)-1-methylvinyl]-23,25-dimethoxy-13,19,21,27-tetramethyl-11,28-dioxa-4-azatricyclo[22.3.1.0^4,9]octacos-18-ene-2,3,10,16-tetraone, reference compound], the “MST (Median Survival Time)” value with rat cardiac allograft (Table 1, FK506 0.32 mg/kg alone) worked out at 8.5 days; with rat cardiac allograft (Table 2, FK506 0.32 mg/kg alone), 10 days. In the test on NOx in rat plasma (Table 1, FK506 0.32 mg/kg alone, rat plasma, 5 days after transplantation), this compound had an NOx of more than 40 µM.

On to `Cn1c(-c2ccc([N+](=O)[O-])cc2)cnc1[C@H](CC(=O)Nc1ccccn1)NC(=O)c1cc2ccccc2[nH]1` [(c)], for which, in test [1], the inhibition at 10 µM was found to be 100%.
